Measurements taken from patent US4215112A, “Tripeptides and methods” (Ortho Pharmaceutical Corporation, priority 1979, dated 1980).
Where a SMILES comes first, the peptide text is derived from it. Where no end group is shown, it is not given here. [ ]: non-standard residue; d: D form. Glx = not defined here; Sar = CNCC(=O)O

Columns and labels:
[1] = test system: Th-1+ T lymphocytes (T-precursor cells of bone marrow); assay: chicken induction assay, Th-1+ T cells; format: cell-based
Source text: (§1) To determine the activity and characteristics of the tripeptide amide produced in Example I, the following chicken induction assay was employed. This assay is described in greater detail in Brand, et al., Science, 193, 319-321 (July 23, 1976) and references contained therein.
(§2) Bone marrow from newly-hatched chickens was selected as a source of inducible cells because it lacks an appreciable number of Bu-1^+ or Th-1^+ cells. Pooled cells from femur and tibiotarsus of five newly-hatched chicks of strain SC (Hy-Line) were fractionated by ultracentrifugation on a five-layer discontinuous bovine serum albumin (BSA) gradient. Cells from the two lighter layers were combined, washed, and suspended for incubation at a concentration of 5×10^6 cells per milliliter with the appropriate concentration of test polypeptide in RPMI 1630 medium supplemented with 15 mM hepes, 5 percent γ-globulin-free fetal calf serum, deoxyribonuclease (14 to 18 unit/ml), heparin (5 unit/ml), penicillin (100 unit/ml), and streptomycin (100 μg/ml). Controls were incubated with BSA (1 μg/ml) or medium alone. After incubation, the cells were tested in the cytotoxicity assay using chicken Cl and guinea pig C2 to C9 complement fractions as described in the reference article. The proportion of Bu-1^+ or Th-1^+ cells in each layer was calculated as a cytotoxicity index, 100 (a-b)/a, where a and b are the percentages of viable cells in the complement control and test preparation, respectively. The percentage of cells induced was obtained by subtracting the mean values in the control incubations without inducing agents (usually 1 to 3 percent) from those of the test inductions.
(§3) This high dose of ubiquitin inactivates the ubiquitin receptors and thus prevents the induction of cells by any agent which acts through these receptors.

[2] = test system: Bu-1+ B lymphocytes (B-precursor cells of bone marrow); assay: chicken induction assay, Bu-1+ B cells; format: cell-based
Source text: as §1, §2, §3

T cells and B cells = conditions: literature / copending application; cited from earlier work
T cells = conditions: E rosette assay; literature; cited from earlier work
[3] = test system: immunocyte-precursor cells; assay: in vitro induction of differentiation of immunocyte-precursor cells (general statement); format: cell-based
Source text: Stated another way, the subject polypeptides have the capability of inducing differentiation of both Th-1^+ T-lymphocytes and Bu-1^+ B-lymphocytes.
The carrier may be any of the well-known carriers for this purpose including normal saline solutions, preferably with a protein diluent such as bovine serum albumin to prevent adsorptive losses to glassware at these low concentrations. The polypeptides of this invention are generally active when parenterally administered at a range of above about 1 μg/kg of body weight. For the treatment of DiGeorge Syndrome, the polypeptides may be parenterally administered at a rate of about 1 to about 100 μg/kg of body weight. Generally, the same range of dosage amounts may be used in treatment of the other conditions or diseases mentioned.

[4] = bone marrow cells of newly-hatched chickens, cytotoxicity assay

## C[C@@H](NC(=O)[C@@H](N)CCCCN)C(=O)N[C@@H](CCC(N)=O)C(N)=O [H--LYS--D--ALA--GLN--NH2] (H-Lys-[dA]-Gln-NH2)
[1]; result in words
  biological activity: induction of differentiation of Th-1+ T cells: Biological activity similar to that of ubiquitin was observed
[2]; result in words
  biological activity: induction of differentiation of Bu-1+ B cells: Biological activity similar to that of ubiquitin was observed

## H--SAR--LYS--SAR--GLN--NH2
T cells and B cells
  differentiation of T cells and B cells: same activity as FTS

## GLX--ALA--LYS--SER--GLN--GLY--GLY--SER--ASN (Glx-AKSQGGSN; reading uncertain; also: N-terminal Glx: Gln or pyroglutamic acid, printed as GLX--ALA--LYS--SER--GLN--GLY--GLY--SER--ASN) [FTS, nonapeptide isolated from porcine serum; GLX is glutamine or pyroglutamic acid]
T cells
  differentiation of T cells versus B cells: selectively differentiated T cells (and not B cells)
T cells and B cells
  differentiation of T cells and B cells: differentiated both T cells and B cells

## H--ALA--LYS--SER--GLN--OH (H-AKSQ-OH) [tetrapeptide of copending application Ser. No. 960,550]
T cells and B cells
  differentiation of T cells and B cells: same activity as FTS

## CN(CC(=O)N[C@@H](CCC(N)=O)C(N)=O)C(=O)[C@@H](N)CCCCN [amidated tripeptide of Example I, H--LYS--SAR--GLN--NH2] (H-Lys-[Sar]-Gln-NH2)
[1]; [4]
  concentration inducing the differentiation of Th-1+ T lymphocytes: 100 pg/mL
[1]; ubiquitin 100 μg/ml added
  effect of added ubiquitin on induction of Th-1+ T cells by the test polypeptide: inhibition of induction
[2]; [4]
  concentration inducing the differentiation of Bu-1+ B lymphocytes: 100 pg/mL
[2]; ubiquitin 100 μg/ml added
  effect of added ubiquitin on induction of Bu-1+ B cells by the test polypeptide: inhibition of induction
[3]
  concentration at which active: about 100 pg/ml
